Data as given in article PMC13426457, “Cryo-EM structures of apo, agonist- and antagonist-bound heteromeric kainate receptors” (Science Advances, 2026).

Biological target: T1, GluK2 (Rattus norvegicus, UniProt P42260, A518T/I567V/C576V/C595S)
T1 construct: gene Grik2
T1 sequence (P42260 32-908 A518T/I567V/C576V/C595S): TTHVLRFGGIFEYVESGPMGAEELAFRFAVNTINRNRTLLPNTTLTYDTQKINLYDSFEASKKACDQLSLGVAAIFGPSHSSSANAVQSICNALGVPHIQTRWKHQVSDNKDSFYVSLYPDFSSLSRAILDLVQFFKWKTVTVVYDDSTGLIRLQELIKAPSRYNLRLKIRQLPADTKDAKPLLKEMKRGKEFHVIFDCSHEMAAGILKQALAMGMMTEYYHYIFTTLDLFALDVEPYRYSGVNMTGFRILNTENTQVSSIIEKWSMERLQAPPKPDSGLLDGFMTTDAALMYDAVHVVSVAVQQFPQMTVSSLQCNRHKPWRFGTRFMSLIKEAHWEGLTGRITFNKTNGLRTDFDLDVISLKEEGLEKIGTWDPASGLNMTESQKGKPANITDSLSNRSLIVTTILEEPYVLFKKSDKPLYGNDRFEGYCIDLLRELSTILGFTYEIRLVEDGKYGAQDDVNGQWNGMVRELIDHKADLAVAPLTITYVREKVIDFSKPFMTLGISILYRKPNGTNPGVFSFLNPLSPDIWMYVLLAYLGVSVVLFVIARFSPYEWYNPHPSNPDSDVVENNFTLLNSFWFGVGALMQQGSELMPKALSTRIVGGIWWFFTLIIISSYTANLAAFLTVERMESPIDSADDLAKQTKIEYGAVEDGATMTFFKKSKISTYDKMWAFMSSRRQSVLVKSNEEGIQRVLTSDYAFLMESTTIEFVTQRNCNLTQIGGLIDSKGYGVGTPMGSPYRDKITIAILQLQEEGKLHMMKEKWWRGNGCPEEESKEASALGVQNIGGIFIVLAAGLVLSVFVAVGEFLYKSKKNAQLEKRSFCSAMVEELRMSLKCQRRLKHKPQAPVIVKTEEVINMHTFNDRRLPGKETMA
T1 sequence (Q63273 with tags, fused parts or gaps T501A/C559V/C578S/C619I/C813A partner): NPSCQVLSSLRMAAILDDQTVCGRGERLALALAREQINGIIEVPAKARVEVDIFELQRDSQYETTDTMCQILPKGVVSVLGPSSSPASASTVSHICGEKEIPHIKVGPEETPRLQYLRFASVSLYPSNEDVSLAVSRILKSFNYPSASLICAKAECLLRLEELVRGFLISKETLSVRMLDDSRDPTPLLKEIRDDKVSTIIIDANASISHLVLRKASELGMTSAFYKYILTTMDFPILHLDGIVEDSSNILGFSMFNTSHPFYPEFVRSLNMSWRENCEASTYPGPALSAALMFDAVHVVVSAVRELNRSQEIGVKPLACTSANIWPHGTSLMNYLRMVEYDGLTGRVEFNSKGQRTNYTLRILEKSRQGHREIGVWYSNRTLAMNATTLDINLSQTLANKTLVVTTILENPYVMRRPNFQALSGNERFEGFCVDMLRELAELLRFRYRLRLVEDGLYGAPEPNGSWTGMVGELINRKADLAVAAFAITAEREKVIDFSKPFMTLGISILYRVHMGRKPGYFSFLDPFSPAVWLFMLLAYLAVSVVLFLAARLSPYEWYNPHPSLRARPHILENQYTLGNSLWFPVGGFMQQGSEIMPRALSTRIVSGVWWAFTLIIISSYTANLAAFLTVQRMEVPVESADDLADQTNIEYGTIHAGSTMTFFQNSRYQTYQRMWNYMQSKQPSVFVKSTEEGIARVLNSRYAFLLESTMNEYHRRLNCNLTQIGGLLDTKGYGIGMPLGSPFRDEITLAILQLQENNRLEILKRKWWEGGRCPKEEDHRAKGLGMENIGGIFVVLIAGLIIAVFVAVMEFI

Cc1cn(C[C@H](N)C(=O)O)c(=O)n(Cc2ccsc2C(=O)O)c1=O [UBP310, (S)-1-(2-amino-2-carboxyethyl)-3-(2-carboxythiophene-3-yl-methyl)-5-methylpyrimidine-2,4-dione]
% current reduction at 0.5 mM: 56.2 ± 21.0 % current reduction at 0.5 mM
